We go through two compounds from patent US7939537B2, “HIV integrase inhibitors” (Istituto Di Ricerche Di Biologia Molecolare P. Angeletti …, priority 2006, dated 2011).

The test system of the assay is HIV. Nature of the assay: Assay for inhibition of HIV replication (spread assay; acute HIV infection of T-lymphoid cells). In kind it is cell-based. The settings on record: Human immunodeficiency virus 1, tested up to 1 micromolar. Here is the method: Assay for Inhibition of HIV Replication
Assays for the inhibition of acute HIV infection of T-lymphoid cells were conducted in accordance with Vacca, J. P. et al., Proc. Natl. Acad. Sci. USA 1994, 91: 4096. […] The compounds of Examples 6, 8, 9, 14, 15, 21-23 and 29-35 were also tested in the spread assay up to 1 micromolar, but specific IC95 values were not obtained; i.e., the IC95 values for these compounds are greater than 1 micromolar.

For orientation: IC95 means the point of the concentration-response curve where the effect stands at 95%. Higher therefore signals weaker potency. For `CCN(CC)C(=O)C(=O)N(CC)c1cccn2c(=O)c(O)c(C(=O)NCc3ccc(F)cc3)nc12` [Example 3, N-(4-fluorobenzyl)-3-hydroxy-9-[(N,N,N′-triethyl)-ethanediamide]-4-oxo-4H-pyrido[1,2-a]pyrimidine-2-carboxamide], the IC95 is under 1000 nM.
As for `CCN(C(=O)C(=O)N1CCOCC1)c1cccn2c(=O)c(O)c(C(=O)NCc3ccc(F)cc3)nc12` [Example 19, N-(4-fluorobenzyl)-3-hydroxy-9-{ethyl[morpholin-4-yl(oxo)acetyl]amino}-4-oxo-4H-pyrido[1,2-a]pyrimidine-2-carboxamide], the figure is under 1000 nM.
